Patent US6228866A, “Condensed piperidine compound” (Ono Pharmaceutical Co., Ltd., priority 1997, dated 2001)

Biological target: T1, i-NOS (Homo sapiens, UniProt P35228)
T1 construct: The supernatant was collected as a source of i-NOS; endogenous in cells; host or cells: A549 (human lung epithelial cell line), stimulated with LPS, TNF-alpha, IL-1beta and IFN-gamma; sonicated, 54,000 rpm supernatant
Assay: i-NOS Inhibition Test
Type: biochemical
Conditions: i-NOS from supernatant of A549 cells stimulated with LPS, TNF-α, IL-1β, INF-γ; 14C-L-arginine substrate; 37° C., 10 minutes; pH 7.8
Method: The pharmacological activity of the compound of formula (I) according to the present invention on i-NOS was examined by the following test.
To human lung epithelial cell line of A549 were added 10 μg/ml of lipopolysaccharide (LPS), 10 ng/ml of tumor necrosis factor-α (TNF-α), 5 ng/ml of interleukin-1β (IL-1β), and 100 ng/ml of interferon-γ (INF-γ). Sixteen hours later the cells were ruptured by ultrasonication and centrifuged at 54,000 rpm. The supernatant was collected as a source of i-NOS.
i-NOS was made to act on ^14 C-labeled L-arginine as a substrate, and L-citrulline produced in the presence of the compound of the invention was determined to calculate the 50% inhibitory concentration of the test compound. More specifically, 10 μl of a 16.8 μM solution of L-[U-^14 C]arginine, 10 μl of the above-prepared i-NOS source, and 10 μl of varied amount of a test compound were added to 70 μl of a solution comprising 50 mM HEPES (N-2-hydroxyethylpiperazine-N'-2-ethanesulfonic acid) (pH 7.8), 1 mM DTT (dithiothreitol), 1 mM NADPH (reduced nicotinamide adenine dinucleotide phosphate), 0.1 mM BH4 (tetrahydrobiopterin), 10 μM FAD (flavin adenine dinucleotide), and 500 units/ml of CaM (calmodulin), and the solution was made to 100 μl. After incubation at 37° C. for 10 minutes, 0.225 ml of a reaction terminating buffer consisting of 100 mM HEPES (pH 5.1 to 5.5) and 10 mM EDTA (ethylenediaminetetraacetic acid) was added while cooling with ice to cease the enzymatic reaction. The reaction solution was passed through a column packed with 0.25 ml of Dowex 50WX-8 (Na^+ form) to remove unreacted L-arginine and the column was washed with 0.45 ml of the reaction terminating buffer to collect an effluent containing L-citrulline. The radioactivity of the effluent was measured with a liquid scintillation counter, which was taken as NOS activity, from which a 50% inhibition concentration of the test compound was obtained.

SMILES | IC50
C[C@H]1[C@H]2NC(=N)C[C@H](C)[C@@H]12 (relative stereo) [2 (g)] | 92 nM
C[C@@H]1CC(=N)N[C@@]2(C)C[C@@H]12 (relative stereo) [3 (i)] | 130 nM
C[C@H]1CC(=N)N[C@H]2[C@@H]1C2(C)C (relative stereo) [compound 1] | 220 nM
C[C@@H]1CC(=N)N[C@H]2C[C@@H]12 [3 (f)] | 180 nM
N=C1CC2(CCN1)CC2 [compound 7] | 200 nM

More lines, in order of falling IC50, values ahead:

IC50 | SMILES
90 nM | C[C@H]1CC(=N)N[C@@H]2C[C@H]12 (relative stereo) [3 (a)]
57 nM | C[C@H]1CC(=N)N[C@H]2[C@@H]1C2(Cl)Cl (relative stereo) [4 (a)]
47 nM | C[C@@H]1CC(=N)N[C@@H]2C[C@H]12 (relative stereo) [3 (g)]
21 nM | C[C@H]1CC(=N)N[C@H]2[C@@H]1C2(Cl)Cl (single isomer, unassigned) [compound 4]
20 nM | C[C@H]1CC(=N)N[C@@H]2[C@H](Cl)[C@@H]21 (relative stereo) [3 (c)]
12 nM | C[C@H]1CC(=N)N[C@@H]2[C@H](Cl)[C@@H]21 [compound 3]
